According to patent US4356183A, “Antihypertensive 4-thiazolidinecarboxylic acids (pyridyl derivatives)” (Santen Pharmaceutical Co., Ltd., priority 1978, dated 1982):

What was measured:
[1] = test system: contractile response of isolated guinea pig ileum to angiotensin I; test: Inhibition of contractile response of isolated guinea pig ileum to angiotensin I; format: cell-based; conditions: Cavia porcellus, angiotensin I 0.1 μg/ml; compound added 5 min before; 30° C.; read-out: Angiotensin I IC50 (50% inhibition of angiotensin I activity inducing the contraction of guinea pig ileum)
[2] = test system: pressor response to angiotensin I; test: Inhibition of pressor response to angiotensin I in rats after oral administration; format: in vivo, rat (male Wistar); conditions: angiotensin I 300 ng/kg i.v.; for Inhibition (%) of pressor response to angiotensin I, 5 min / Inhibition (%) of pressor response to angiotensin I, 15 min / Inhibition (%) of pressor response to angiotensin I, 25 min / Inhibition (%) of pressor response to angiotensin I, 35 min / Inhibition (%) of pressor response to angiotensin I, 45 min / Inhibition (%) of pressor response to angiotensin I, 55 min / Inhibition (%) of pressor response to angiotensin I, 65 min / Inhibition (%) of pressor response to angiotensin I, 75 min / Inhibition (%) of pressor response to angiotensin I, 85 min: dose: 3, 45, 49 1.8 mg/kg, 4, 46 1.3, 50 1.4, 76 2.0, 77 1.5; for Inhibition (%) of pressor response to angiotensin I, 95 min: dose: 45, 49 1.8 mg/kg, 4, 46 1.3, 50 1.4, 76 2.0, 77 1.5; for Inhibition (%) of pressor response to angiotensin I, 105 min / Inhibition (%) of pressor response to angiotensin I, 115 min: dose: 45, 49 1.8 mg/kg, 46 1.3, 50 1.4, 76 2.0, 77 1.5
[3] = molecular target: T1, angiotensin I-converting enzyme (Oryctolagus cuniculus, UniProt P12822); test: Inhibition of angiotensin I-converting enzyme by spectrophotometry (HHL substrate); format: biochemical; conditions: enzyme from rabbit lung; 5 mM HHL; pH 8.3; 37° C., 30 min
T1 construct: angiotensin I-converting enzyme extracted from rabbit lung; from tissue; host or cells: rabbit lung
T1 sequence (P12822 34-1310): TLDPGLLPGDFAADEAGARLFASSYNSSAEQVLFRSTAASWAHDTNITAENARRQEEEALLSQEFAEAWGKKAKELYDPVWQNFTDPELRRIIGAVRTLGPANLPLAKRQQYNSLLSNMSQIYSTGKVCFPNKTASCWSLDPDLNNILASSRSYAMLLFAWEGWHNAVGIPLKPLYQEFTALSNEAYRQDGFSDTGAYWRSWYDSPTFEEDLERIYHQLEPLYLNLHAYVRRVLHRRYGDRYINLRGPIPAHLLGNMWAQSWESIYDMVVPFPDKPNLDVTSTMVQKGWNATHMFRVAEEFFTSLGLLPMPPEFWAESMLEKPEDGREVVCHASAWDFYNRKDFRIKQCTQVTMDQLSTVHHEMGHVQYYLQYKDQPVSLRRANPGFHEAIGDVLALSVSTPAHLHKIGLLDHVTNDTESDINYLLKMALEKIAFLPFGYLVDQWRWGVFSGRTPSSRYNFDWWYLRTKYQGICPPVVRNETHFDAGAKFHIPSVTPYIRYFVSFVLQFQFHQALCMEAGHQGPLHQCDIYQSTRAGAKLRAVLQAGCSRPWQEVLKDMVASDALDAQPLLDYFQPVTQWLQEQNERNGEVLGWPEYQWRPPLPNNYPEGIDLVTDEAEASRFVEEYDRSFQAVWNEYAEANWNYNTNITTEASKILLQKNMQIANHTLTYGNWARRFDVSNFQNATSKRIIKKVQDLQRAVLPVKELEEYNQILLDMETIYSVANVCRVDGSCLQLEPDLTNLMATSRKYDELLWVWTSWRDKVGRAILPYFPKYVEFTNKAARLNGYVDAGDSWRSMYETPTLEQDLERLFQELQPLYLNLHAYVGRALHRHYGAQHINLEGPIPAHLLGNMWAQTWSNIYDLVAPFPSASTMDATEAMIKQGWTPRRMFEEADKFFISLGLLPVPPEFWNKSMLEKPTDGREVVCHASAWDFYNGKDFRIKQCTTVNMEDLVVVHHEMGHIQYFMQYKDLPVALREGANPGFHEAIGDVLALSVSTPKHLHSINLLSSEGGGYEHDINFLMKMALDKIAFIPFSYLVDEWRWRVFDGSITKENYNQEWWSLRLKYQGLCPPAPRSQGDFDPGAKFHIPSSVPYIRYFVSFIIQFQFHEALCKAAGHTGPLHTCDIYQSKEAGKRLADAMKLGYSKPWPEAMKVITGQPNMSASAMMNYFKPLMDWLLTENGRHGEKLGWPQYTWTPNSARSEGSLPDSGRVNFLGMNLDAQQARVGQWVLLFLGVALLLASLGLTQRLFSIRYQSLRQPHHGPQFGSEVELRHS

`C[C@H](CS)C(=O)N1C(c2ccccc2O)SC[C@H]1C(=O)O` (stereo partly shown) [Compound 50] was tested, and the IC50 [1] was 56 nM, the “Inhibition (%) of pressor response to angiotensin I, 5 min” value [2] was 11.1% and the “Inhibition (%) of pressor response to angiotensin I, 15 min” value [2] was 22.7%. For the same compound, the “Inhibition (%) of pressor response to angiotensin I, 25 min” value [2] was 37.6%, the “Inhibition (%) of pressor response to angiotensin I, 35 min” value [2] was 43.9% and the “Inhibition (%) of pressor response to angiotensin I, 45 min” value [2] was 52.6%. For the same compound, the “Inhibition (%) of pressor response to angiotensin I, 55 min” value [2] was 31.7%, the “Inhibition (%) of pressor response to angiotensin I, 65 min” value [2] was 28.1% and the “Inhibition (%) of pressor response to angiotensin I, 75 min” value [2] was 30.5%. The “Inhibition (%) of pressor response to angiotensin I, 85 min” value [2] was 24.3%, the “Inhibition (%) of pressor response to angiotensin I, 95 min” value [2] was 21.1% and the “Inhibition (%) of pressor response to angiotensin I, 105 min” value [2] was 21.7%. The “Inhibition (%) of pressor response to angiotensin I, 115 min” value [2] was 21.5% and the IC50 [3] was 220 nM.
`COc1ccc(C2SC[C@@H](C(=O)O)N2C(=O)[C@H](C)CS)c(O)c1` (stereo partly shown) [Compound 77] was tested, and the IC50 [1] was 120 nM, the “Inhibition (%) of pressor response to angiotensin I, 5 min” value [2] was 35.0% and the “Inhibition (%) of pressor response to angiotensin I, 15 min” value [2] was 45.0%. The “Inhibition (%) of pressor response to angiotensin I, 25 min” value [2] was 54.2%, the “Inhibition (%) of pressor response to angiotensin I, 35 min” value [2] was 50.8% and the “Inhibition (%) of pressor response to angiotensin I, 45 min” value [2] was 57.2%. For the same compound, the “Inhibition (%) of pressor response to angiotensin I, 55 min” value [2] was 49.2%, the “Inhibition (%) of pressor response to angiotensin I, 65 min” value [2] was 47.8% and the “Inhibition (%) of pressor response to angiotensin I, 75 min” value [2] was 34.8%. For the same compound, the “Inhibition (%) of pressor response to angiotensin I, 85 min” value [2] was 31.7%, the “Inhibition (%) of pressor response to angiotensin I, 95 min” value [2] was 24.2% and the “Inhibition (%) of pressor response to angiotensin I, 105 min” value [2] was 18.7%. The “Inhibition (%) of pressor response to angiotensin I, 115 min” value [2] was 6.7% and the IC50 [3] was 190 nM.
